Experimental data as given in patent publication US20250205344A1, “2,4-DIOXOTETRAHYDROPYRIMIDINYL DERATIVES AS DEGRONS IN PROTACS” (GLAXOSMITHKLINE INTELLECTUAL PROPERTY DEVELOPMENT LIMITED, priority 2022, published 2025).
Where a name gives a salt, the structure may show the parent alone.

molecular target: T1, Androgen Receptor (Homo sapiens, UniProt P10275, T878A); assay: Androgen Receptor Degradation Assay (Nano-Glo HiBiT); assay type: cell-based; settings: LNCaP, 18 h, HiBiT-tagged AR in human LnCaP cells, read-out: mean asymptote max
T1 construct: the AR gene was modified, using CRISPR/Cas9 editing, so the expressed AR protein included an 11 amino acid HiBiT tag; endogenous in cells; host or cells: clonal LnCaP-derived line, AR gene edited by CRISPR/Cas9
T1 sequence (P10275 whole entry T878A): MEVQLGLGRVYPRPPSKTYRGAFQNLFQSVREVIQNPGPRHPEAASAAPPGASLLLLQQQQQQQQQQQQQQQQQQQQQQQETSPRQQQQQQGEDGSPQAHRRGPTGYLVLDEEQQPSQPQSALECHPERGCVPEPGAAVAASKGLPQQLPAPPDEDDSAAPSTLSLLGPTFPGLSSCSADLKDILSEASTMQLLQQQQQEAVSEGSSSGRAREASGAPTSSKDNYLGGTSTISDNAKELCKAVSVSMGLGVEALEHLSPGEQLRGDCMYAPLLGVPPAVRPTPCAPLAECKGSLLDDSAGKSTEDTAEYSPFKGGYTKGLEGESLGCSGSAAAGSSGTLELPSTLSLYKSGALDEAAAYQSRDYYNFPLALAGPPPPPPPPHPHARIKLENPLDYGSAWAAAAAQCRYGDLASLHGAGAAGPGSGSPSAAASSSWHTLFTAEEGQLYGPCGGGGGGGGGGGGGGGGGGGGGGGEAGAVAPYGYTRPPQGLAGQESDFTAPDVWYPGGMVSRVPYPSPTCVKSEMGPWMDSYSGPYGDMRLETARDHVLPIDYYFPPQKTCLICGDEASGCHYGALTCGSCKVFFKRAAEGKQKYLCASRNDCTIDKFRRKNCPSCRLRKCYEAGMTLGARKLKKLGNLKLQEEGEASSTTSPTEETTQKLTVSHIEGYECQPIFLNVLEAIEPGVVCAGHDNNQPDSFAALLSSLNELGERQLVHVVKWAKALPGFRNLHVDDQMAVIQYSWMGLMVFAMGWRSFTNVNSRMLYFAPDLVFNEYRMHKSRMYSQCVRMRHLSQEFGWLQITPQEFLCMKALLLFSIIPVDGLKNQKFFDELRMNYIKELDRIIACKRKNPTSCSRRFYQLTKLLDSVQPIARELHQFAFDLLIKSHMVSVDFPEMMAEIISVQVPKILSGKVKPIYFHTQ
T1 sequence (Q96SW2 whole entry partner): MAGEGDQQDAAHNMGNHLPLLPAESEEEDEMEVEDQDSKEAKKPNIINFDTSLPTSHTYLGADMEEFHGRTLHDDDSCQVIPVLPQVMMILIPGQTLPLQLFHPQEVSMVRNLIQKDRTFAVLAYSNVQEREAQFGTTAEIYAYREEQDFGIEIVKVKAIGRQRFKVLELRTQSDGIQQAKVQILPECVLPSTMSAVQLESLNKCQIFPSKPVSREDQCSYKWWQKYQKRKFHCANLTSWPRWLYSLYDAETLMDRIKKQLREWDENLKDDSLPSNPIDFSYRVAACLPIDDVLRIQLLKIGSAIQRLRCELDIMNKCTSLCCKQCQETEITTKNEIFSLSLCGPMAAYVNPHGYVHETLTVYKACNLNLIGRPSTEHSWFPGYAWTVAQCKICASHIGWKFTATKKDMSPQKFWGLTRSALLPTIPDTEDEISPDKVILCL
T1 sequence (Q16531 whole entry partner): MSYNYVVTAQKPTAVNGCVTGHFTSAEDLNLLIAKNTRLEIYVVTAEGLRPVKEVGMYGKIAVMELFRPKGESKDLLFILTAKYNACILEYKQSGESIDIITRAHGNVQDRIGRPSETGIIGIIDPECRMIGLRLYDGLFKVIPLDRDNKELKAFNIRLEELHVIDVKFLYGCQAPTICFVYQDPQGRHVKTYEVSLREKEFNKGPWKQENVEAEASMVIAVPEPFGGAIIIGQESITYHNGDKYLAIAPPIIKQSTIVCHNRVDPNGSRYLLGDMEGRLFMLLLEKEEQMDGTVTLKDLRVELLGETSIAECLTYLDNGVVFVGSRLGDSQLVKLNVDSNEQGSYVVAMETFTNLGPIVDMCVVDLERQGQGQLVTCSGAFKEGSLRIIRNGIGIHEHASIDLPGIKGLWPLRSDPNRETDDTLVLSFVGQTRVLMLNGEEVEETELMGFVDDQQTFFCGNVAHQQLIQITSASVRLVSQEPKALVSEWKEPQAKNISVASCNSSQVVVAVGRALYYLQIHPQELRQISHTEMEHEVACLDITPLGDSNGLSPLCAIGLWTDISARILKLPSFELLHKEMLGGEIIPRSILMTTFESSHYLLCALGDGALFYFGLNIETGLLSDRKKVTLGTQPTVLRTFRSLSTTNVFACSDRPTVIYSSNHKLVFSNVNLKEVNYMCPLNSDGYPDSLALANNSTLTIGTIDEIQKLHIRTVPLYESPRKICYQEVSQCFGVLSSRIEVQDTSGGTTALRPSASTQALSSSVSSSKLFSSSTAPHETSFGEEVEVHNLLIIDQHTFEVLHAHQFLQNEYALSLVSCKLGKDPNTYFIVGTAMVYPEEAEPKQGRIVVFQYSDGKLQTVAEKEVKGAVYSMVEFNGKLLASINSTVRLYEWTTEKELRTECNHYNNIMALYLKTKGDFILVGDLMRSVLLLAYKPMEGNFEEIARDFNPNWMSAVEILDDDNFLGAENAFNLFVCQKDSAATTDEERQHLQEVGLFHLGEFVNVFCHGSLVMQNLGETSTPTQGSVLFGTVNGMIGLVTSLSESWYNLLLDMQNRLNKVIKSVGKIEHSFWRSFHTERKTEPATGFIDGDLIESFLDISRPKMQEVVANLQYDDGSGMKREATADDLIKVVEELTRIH
Experimental: Degradation of Androgen Receptor protein in human LnCaP cells treated with PROTACs was quantified using the Nano-Glo® HiBiT Lytic Detection System (Promega) in 384 well assay plate format. A clonal LnCaP derived cell line was first established in which the AR gene was modified, using CRISPR/Cas9 editing, so the expressed AR protein included an 11 amino acid HiBiT tag at its amino-terminus. 10 mM DMSO stock solutions of PROTACs were prepared and diluted across an 11 concentration, 3 fold increment range, and 25 nL dispensed into a white opaque bottomed 384 well assay plate (Thermofisher) using an acoustic ECHO dispenser (Labcyte). […] For the assay, cells were detached from flask and resuspended with assay medium (FluoroBrite™ DMEM supplemented with 10% heat inactivated FBS, penicillin 50 U/mL and streptomycin 50 ug/mL (Thermofisher)). The cell suspension was centrifuged at 400 g for 5 min and the pellet resuspended in assay medium. 25 μL of cell suspension containing 10,000 cells was dispensed into each well of the assay plate containing the test compounds, which was then incubated for 18 h at 37° C./5% CO2. Control wells were included on each assay plate, with assay medium without cells being the no AR remaining 100% effect control, and cells treated with DMSO vehicle only, without PROTAC, the 0% effect control. 25 μL of Nano-Glo® HiBiT lysis buffer supplemented with LgBiT protein and Nano-Glo® substrate (Promega) was added to each well and the plate shaken at 500 rpm for 10 min at room temperature. The intensity of luminescence was measured using a PHERAstar microplate reader (BMG Labtech) and the % AR protein remaining in each well calculated by normalising the raw luminescence value to the above control wells. Parameters corresponding to the potency and efficacy estimates of the PROTACs were obtained from these normalised luminescence values using software (IDBS ActivityBase). These included the DC50 and the Dmax estimates. Two versions of the DC50, called relative DC50 and absolute DC50, were typically generated. These are the inflection point of a fitted 4 parameter sigmoidal response curve and the interpolated concentration of PROTAC corresponding to 50% of the protein being degraded, respectively. The Dmax parameter was the maximum experimentally observed degradation and the asymptote max parameter the fitted response curve asymptote maximum.

| Dmax | Structure (SMILES) |
| --- | --- |
| ≥ 50% | N#Cc1ccc(O[C@H]2CC[C@H](NC(=O)c3ccc(N4CCN(CC(=O)N5CCC(n6ccc7c(N8CCC(=O)NC8=O)cccc76)CC5)CC4)nn3)CC2)cc1Cl [EAR134, N-((1r,4r)-4-(3-Chloro-4-cyanophenoxy)cyclohexyl)-6-(4-(2-(4-(4-(2,4-dioxotetrahydropyrimidin-1(2H)-yl)-1H-indol-1-yl)piperidin-1-yl)-2-oxoethyl)piperazin-1-yl)pyridazine-3-carboxamide] |
| ≥ 50% | N#Cc1ccc(O[C@H]2CC[C@H](NC(=O)c3ccc(N4CCCC(CN5CCC(n6ncc7c(N8CCC(=O)NC8=O)cccc76)CC5)C4)nn3)CC2)cc1Cl (stereo partly drawn) [EAR36, N-((1r,4r)-4-(3-Chloro-4-cyanophenoxy)cyclohexyl)-6-(3-((4-(4-(2,4-dioxotetrahydropyrimidin-1(2H)-yl)-1H-indazol-1-yl)piperidin-1-yl)methyl)piperidin-1-yl)pyridazine-3-carboxamide] |
| ≥ 50% | CC1(CN2CCC(n3ncc4c(N5CCC(=O)NC5=O)cccc43)CC2)CCN(c2ccc(C(=O)N[C@H]3CC[C@H](Oc4ccc(C#N)c(Cl)c4)CC3)nn2)CC1 [EAR242, N-((1r,4r)-4-(3-chloro-4-cyanophenoxy)cyclohexyl)-6-(4-((4-(4-(2,4-dioxotetrahydropyrimidin-1(2H)-yl)-1H-indazol-1-yl)piperidin-1-yl)methyl)-4-methylpiperidin-1-yl)pyridazine-3-carboxamide] |
| ≥ 50% | N#Cc1ccc(O[C@H]2CC[C@H](NC(=O)c3ccc(N4CCC(OCCN5CCC(n6ncc7c(N8CCC(=O)NC8=O)cccc76)CC5)CC4)nn3)CC2)cc1Cl [EAR231, N-((1r,4r)-4-(3-chloro-4-cyanophenoxy)cyclohexyl)-6-(4-(2-(4-(4-(2,4-dioxotetrahydropyrimidin-1(2H)-yl)-1H-indazol-1-yl)piperidin-1-yl)ethoxy)piperidin-1-yl)pyridazine-3-carboxamide] |
| ≥ 50% | N#Cc1ccc(O[C@H]2CC[C@H](NC(=O)c3ccc(N4CC5(CCC(CN6CCC(n7ncc8c(N9CCC(=O)NC9=O)cccc87)CC6)CC5)C4)nn3)CC2)cc1Cl [EAR225, N-((1r,4r)-4-(3-chloro-4-cyanophenoxy)cyclohexyl)-6-(7-((4-(4-(2,4-dioxotetrahydropyrimidin-1(2H)-yl)-1H-indazol-1-yl)piperidin-1-yl)methyl)-2-azaspiro[3.5]nonan-2-yl)pyridazine-3-carboxamide] |
| ≥ 50% | N#Cc1ccc(O[C@H]2CC[C@H](NC(=O)c3cnc(N4CCC(CN5CCC(n6ccc7c(N8CCC(=O)NC8=O)cccc76)CC5)CC4)nc3)CC2)cc1Cl [AR10, N-((1r,4r)-4-(3-Chloro-4-cyanophenoxy)cyclohexyl)-2-(4-((4-(4-(2,4-dioxotetrahydropyrimidin-1(2H)-yl)-1H-indol-1-yl)piperidin-1-yl)methyl)piperidin-1-yl)pyrimidine-5-carboxamide] |
| ≥ 50% | N#Cc1ccc(O[C@H]2CC[C@H](NC(=O)c3cccc(C4CCN(C(=O)CN5CCC(n6ccc7c(N8CCC(=O)NC8=O)cccc76)CC5)CC4)c3)CC2)cc1Cl [AR3, N-((1r,4r)-4-(3-Chloro-4-cyanophenoxy)cyclohexyl)-3-(1-(2-(4-(4-(2,4-dioxotetrahydropyrimidin-1(2H)-yl)-1H-indol-1-yl)piperidin-1-yl)acetyl)piperidin-4-yl)benzamide] |
| ≥ 50% | CC1(CN2CCC(n3ccc4c(N5CCC(=O)NC5=O)cccc43)CC2)CCN(c2ccc(C(=O)N[C@H]3CC[C@H](Oc4ccc(C#N)c(Cl)c4)CC3)nn2)CC1 [EAR213, N-((1r,4r)-4-(3-Chloro-4-cyanophenoxy)cyclohexyl)-6-(4-((4-(4-(2,4-dioxotetrahydropyrimidin-1(2H)-yl)-1H-indol-1-yl)piperidin-1-yl)methyl)-4-methylpiperidin-1-yl)pyridazine-3-carboxamide] |

Further lines, the compound ahead of its results:

| Structure (SMILES) | Dmax |
| --- | --- |
| CC1(C)C(=O)N(c2ccc(C#N)c(C(F)(F)F)c2)C(=S)N1c1ccc(N2CCC(CN3CCC(n4ccc5c(N6CCC(=O)NC6=O)cccc54)CC3)CC2)cc1 [EAR99, 4-(3-(4-(4-((4-(4-(2,4-Dioxotetrahydropyrimidin-1(2H)-yl)-1H-indol-1-yl)piperidin-1-yl)methyl)piperidin-1-yl)phenyl)-4,4-dimethyl-5-oxo-2-thioxoimidazolidin-1-yl)-2-(trifluoromethyl)benzonitrile formate] | ≥ 50% |
| CC1(C)[C@H](NC(=O)c2ncc(N3CCC(CN4CCC(n5ncc6c(N7CCC(=O)NC7=O)ccnc65)CC4)CC3)cn2)C(C)(C)[C@H]1Oc1ccc(C#N)c(Cl)c1 [EAR272, N-((1r,3r)-3-(3-Chloro-4-cyanophenoxy)-2,2,4,4-tetramethylcyclobutyl)-5-(4-((4-(4-(2,4-dioxotetrahydropyrimidin-1(2H)-yl)-1H-pyrazolo[3,4-b]pyridin-1-yl)piperidin-1-yl)methyl)piperidin-1-yl)pyrimidine-2-carboxamide] | ≥ 50% |
| CC(C)n1ccc2c(N3CCC(=O)NC3=O)cc(C(=O)N3CCN(CCCOc4ccc(N5C(=S)N(c6ccc(C#N)c(C(F)(F)F)c6)C(=O)C5(C)C)cc4)CC3)cc21 [EAR94, 4-(3-(4-(3-(4-(4-(2,4-Dioxotetrahydropyrimidin-1(2H)-yl)-1-isopropyl-1H-indole-6-carbonyl)piperazin-1-yl)propoxy)phenyl)-4,4-dimethyl-5-oxo-2-thioxoimidazolidin-1-yl)-2-(trifluoromethyl)benzonitrile formate] | ≥ 50% |
| CC(C)n1ccc2c(N3CCC(=O)NC3=O)cc(C(=O)N(C)CC3CCN(CCCOc4ccc(N5C(=S)N(c6ccc(C#N)c(C(F)(F)F)c6)C(=O)C5(C)C)cc4)CC3)cc21 [EAR93, N-((1-(3-(4-(3-(4-Cyano-3-(trifluoromethyl)phenyl)-5,5-dimethyl-4-oxo-2-thioxoimidazolidin-1-yl)phenoxy)propyl)piperidin-4-yl)methyl)-4-(2,4-dioxotetrahydropyrimidin-1(2H)-yl)-1-isopropyl-N-methyl-1H-indole-6-carboxamide formate] | ≥ 50% |
| CC1(C)[C@H](NC(=O)c2cnc(N3CCC(CN4CCC(n5ccc6c(N7CCC(=O)NC7=O)cccc65)CC4)CC3)nc2)C(C)(C)[C@H]1Oc1ccc(C#N)c(Cl)c1 [EAR11, N-((1r,3r)-3-(3-Chloro-4-cyanophenoxy)-2,2,4,4-tetramethylcyclobutyl)-2-(4-((4-(4-(2,4-dioxotetrahydropyrimidin-1(2H)-yl)-1H-indol-1-yl)piperidin-1-yl)methyl)piperidin-1-yl)pyrimidine-5-carboxamide] | ≥ 50% |
| N#Cc1ccc(O[C@H]2CC[C@H](NC(=O)c3ccc(N4CCC(CN5CCC(n6ccc7c(N8CCC(=O)NC8=O)nccc76)CC5)CC4)cc3)CC2)cc1Cl [EAR197, N-((1r,4r)-4-(3-Chloro-4-cyanophenoxy)cyclohexyl)-4-(4-((4-(4-(2,4-dioxotetrahydropyrimidin-1(2H)-yl)-1H-pyrrolo[3,2-c]pyridin-1-yl)piperidin-1-yl)methyl)piperidin-1-yl)benzamide] | ≥ 50% |
| C[C@@H]1CN(c2ccc(C#N)c(Cl)c2)[C@@H](C)CN1C(=O)Nc1ccc(OCCCCN2CCC(n3ccc4c(N5CCC(=O)NC5=O)cncc43)CC2)nc1 [EAR111, (2R,5S)-4-(3-Chloro-4-cyanophenyl)-N-(6-(4-(4-(4-(2,4-dioxotetrahydropyrimidin-1(2H)-yl)-1H-pyrrolo[2,3-c]pyridin-1-yl)piperidin-1-yl)butoxy)pyridin-3-yl)-2,5-dimethylpiperazine-1-carboxamide] | ≥ 50% |
